Data taken from paper PMC8199471, “Identification, Characterization and Antihypertensive Effect In Vivo of a Novel ACE-Inhibitory Heptapeptide from Defatted Areca Nut Kernel Globulin Hydrolysates” (Molecules, 2021).
Ends that are not written are not given here.

Legend:
[1] = system: spontaneously hypertensive rats (SHRs); assay: Antihypertensive effect in vivo, tail-cuff SBP and DBP; set-up: species or system rat; settings: positive control, oral 14 mg/kg/body weight once daily, throughout the experiment period
Method: The antihypertensive effect of the synthesized peptide was determined as per the same procedure described by Zheng et al.. Briefly, spontaneously hypertensive rats (SHRs, male, 12 weeks age) were purchased from VRL Animal Technology Co., Ltd. (Beijing, China). The SHRs were randomly divided into positive control group, low-, middle- and high-dosage groups, and negative control group. Each group contains four rats. […] In addition, SHRs in the negative group were orally given saline (0.9%). After an adaptation period of one week, the weight, systolic blood pressure (SBP) and diastolic blood pressure (DBP) of SHRs were measured using the tail-cuff method once week. Moreover, the animal experiment was conducted in conformity with institutional guidelines for the care and use of laboratory animals in Shanxi University of Chinese Medicine, Taiyuan, China. All the rats received human care conforming to the National Institutes of Health Guide for care and Use of Laboratory Animals (Publication No. 85-23, revised 1985).

ACE = system: ACE; set-up: method as in 2 sources, one per row (each row's own in cited_ref): ref 18 = [18]; PMID 29606478; doi:10.1016/j.foodchem.2018.02.107; 18. Tu M. Wang C. Chen C. Zhang R. Liu H. Lu W. Jiang L. Du M. Identification of a novel ACE-inhibitory peptide from casein and evaluation of the inhibitory mechanisms Food Chem. 2018 256 98 104 10.10 ||| ref 20 = [20]; PMID 30229250; doi:10.1039/C8FO00569A; 20. Ling Y. Sun L.P. Zhuang Y.L. Preparation and identification of novel inhibitory angiotensin-I-converting enzyme peptides from tilapia skin gelatin hydrolysates: Inhibition kinetics and molecular d; settings: peptide identified in casein protein; cited from earlier work
ACE (from rabbit lung) = biological target: T1, ACE (from rabbit lung) (Oryctolagus cuniculus, UniProt P12822); assay: ACE-inhibitory activity assay (HHL substrate, method of Jimsheena and Gowda); type: biochemical; settings: synthesized peptide; calculated from regression y = 12.464 ln(x) − 28.656
T1 construct: ACE (from rabbit lung); purchased Sigma Co., St. Louis, MO, USA; host or cells: rabbit lung (tissue-derived)
T1 sequence (P12822 34-1310): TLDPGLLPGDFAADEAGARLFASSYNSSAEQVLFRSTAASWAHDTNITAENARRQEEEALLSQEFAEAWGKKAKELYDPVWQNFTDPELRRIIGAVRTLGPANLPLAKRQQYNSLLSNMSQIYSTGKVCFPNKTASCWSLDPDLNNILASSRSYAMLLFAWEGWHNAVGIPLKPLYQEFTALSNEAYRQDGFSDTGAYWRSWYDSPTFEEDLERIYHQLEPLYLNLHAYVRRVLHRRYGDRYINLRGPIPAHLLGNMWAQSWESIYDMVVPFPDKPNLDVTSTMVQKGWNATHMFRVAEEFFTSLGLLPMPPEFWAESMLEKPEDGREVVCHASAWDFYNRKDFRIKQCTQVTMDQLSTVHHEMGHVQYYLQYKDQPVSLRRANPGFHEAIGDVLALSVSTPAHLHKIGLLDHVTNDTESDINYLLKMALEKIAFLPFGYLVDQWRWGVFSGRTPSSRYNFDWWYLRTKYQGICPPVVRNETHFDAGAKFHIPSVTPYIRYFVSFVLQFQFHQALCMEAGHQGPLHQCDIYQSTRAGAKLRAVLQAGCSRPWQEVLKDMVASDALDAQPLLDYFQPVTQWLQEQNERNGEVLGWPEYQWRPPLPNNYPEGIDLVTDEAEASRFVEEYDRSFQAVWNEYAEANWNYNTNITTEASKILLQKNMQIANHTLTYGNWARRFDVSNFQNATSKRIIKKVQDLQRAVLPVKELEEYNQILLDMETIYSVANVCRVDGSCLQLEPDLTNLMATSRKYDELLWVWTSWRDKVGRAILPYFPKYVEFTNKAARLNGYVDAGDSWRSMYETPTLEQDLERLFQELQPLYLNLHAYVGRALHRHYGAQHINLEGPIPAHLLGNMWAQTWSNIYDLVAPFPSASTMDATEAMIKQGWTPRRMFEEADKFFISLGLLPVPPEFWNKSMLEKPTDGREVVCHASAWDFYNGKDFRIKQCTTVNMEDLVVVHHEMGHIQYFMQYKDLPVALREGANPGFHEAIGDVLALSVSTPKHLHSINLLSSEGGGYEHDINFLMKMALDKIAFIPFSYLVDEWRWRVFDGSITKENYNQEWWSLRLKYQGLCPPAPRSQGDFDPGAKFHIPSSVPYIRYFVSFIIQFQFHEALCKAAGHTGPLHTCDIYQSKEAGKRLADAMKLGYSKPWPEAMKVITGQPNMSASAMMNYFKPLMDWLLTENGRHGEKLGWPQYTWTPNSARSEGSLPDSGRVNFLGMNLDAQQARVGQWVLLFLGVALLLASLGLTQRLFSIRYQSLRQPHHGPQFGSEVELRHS
Source text: Areca nut kernel was purchased from Sanpo Palm Ground Part Co., Haikou, China. Cellulase (from Trichoderma viride G, 3.0 × 10^5 U), trypsin (5 × 10^[…]) and alcalase (1 × 10^[…]) were purchased from Tian Keji Co., Ltd. (Tianjin, China). EA.hy926 cells were purchased from the Type Culture Collection of the Chinese Academy of Sciences, Shanghai, China. Captopril, ACE (from rabbit lung) and N-Hippuryl-His-Leu hydrate (HHL) were purchased from Sigma Co., St. Louis, MO, USA. Endothelin-1 Elisa kit was from Pensui Biotech Co. (Wuhan, China). DMEM (Dulbecco's modified Eagle's medium) were obtained from JiQing Biotech. Co., Ltd. (Nanjing, China). Other chemicals and reagents were of analytical grade and purchased from Peisu Co., Ltd. (Xi'an, China). ACE-inhibitory activity was determined using the same procedure as described by Jimsheena and Gowda. The concentration of the sample required for inhibiting 50% of ACE activity was defined as IC50 value. The ACE inhibition kinetics of peptides identified in ANKGH was analyzed by Lineweaver-Burk plots of 1/V versus 1/HHL in the presence of the inhibitor [17]. The concentrations of HHL (N-hippuryl-His-Leu hydrate) used were 0.76 to 7.60 mM.

C[C@H](CS)C(=O)N1CCC[C@H]1C(=O)O [Captopril]
DBP of SHRs among all test groups [1]: lowest | SBP of SHRs among all test groups [1]: lowest

NMAINPSKENLCSTFCK
IC50 (ACE): 129 µM

APKIEEV [APKIEEV, Ala–Pro–Lys–Ile–Glu–Glu–Val]
IC50 (ACE (from rabbit lung)): 550 µM
